Assay results: paper PMC8500670, “A selective WDR5 degrader inhibits acute myeloid leukemia in patient-derived mouse models” (Science translational medicine, 2021)
Where two headings read alike, the source gives them in different places.

Legend:
Experiment in all cases: biochemical
Set-up in all cases: protein methyltransferase selectivity panel, enzyme activity relative to DMSO controls, single concentration in duplicate
[1] = target: DOT1L (Homo sapiens, UniProt Q8TEK3); settings: Substrate:=Nucleosomes
Chain of DOT1L (Q8TEK3 whole entry): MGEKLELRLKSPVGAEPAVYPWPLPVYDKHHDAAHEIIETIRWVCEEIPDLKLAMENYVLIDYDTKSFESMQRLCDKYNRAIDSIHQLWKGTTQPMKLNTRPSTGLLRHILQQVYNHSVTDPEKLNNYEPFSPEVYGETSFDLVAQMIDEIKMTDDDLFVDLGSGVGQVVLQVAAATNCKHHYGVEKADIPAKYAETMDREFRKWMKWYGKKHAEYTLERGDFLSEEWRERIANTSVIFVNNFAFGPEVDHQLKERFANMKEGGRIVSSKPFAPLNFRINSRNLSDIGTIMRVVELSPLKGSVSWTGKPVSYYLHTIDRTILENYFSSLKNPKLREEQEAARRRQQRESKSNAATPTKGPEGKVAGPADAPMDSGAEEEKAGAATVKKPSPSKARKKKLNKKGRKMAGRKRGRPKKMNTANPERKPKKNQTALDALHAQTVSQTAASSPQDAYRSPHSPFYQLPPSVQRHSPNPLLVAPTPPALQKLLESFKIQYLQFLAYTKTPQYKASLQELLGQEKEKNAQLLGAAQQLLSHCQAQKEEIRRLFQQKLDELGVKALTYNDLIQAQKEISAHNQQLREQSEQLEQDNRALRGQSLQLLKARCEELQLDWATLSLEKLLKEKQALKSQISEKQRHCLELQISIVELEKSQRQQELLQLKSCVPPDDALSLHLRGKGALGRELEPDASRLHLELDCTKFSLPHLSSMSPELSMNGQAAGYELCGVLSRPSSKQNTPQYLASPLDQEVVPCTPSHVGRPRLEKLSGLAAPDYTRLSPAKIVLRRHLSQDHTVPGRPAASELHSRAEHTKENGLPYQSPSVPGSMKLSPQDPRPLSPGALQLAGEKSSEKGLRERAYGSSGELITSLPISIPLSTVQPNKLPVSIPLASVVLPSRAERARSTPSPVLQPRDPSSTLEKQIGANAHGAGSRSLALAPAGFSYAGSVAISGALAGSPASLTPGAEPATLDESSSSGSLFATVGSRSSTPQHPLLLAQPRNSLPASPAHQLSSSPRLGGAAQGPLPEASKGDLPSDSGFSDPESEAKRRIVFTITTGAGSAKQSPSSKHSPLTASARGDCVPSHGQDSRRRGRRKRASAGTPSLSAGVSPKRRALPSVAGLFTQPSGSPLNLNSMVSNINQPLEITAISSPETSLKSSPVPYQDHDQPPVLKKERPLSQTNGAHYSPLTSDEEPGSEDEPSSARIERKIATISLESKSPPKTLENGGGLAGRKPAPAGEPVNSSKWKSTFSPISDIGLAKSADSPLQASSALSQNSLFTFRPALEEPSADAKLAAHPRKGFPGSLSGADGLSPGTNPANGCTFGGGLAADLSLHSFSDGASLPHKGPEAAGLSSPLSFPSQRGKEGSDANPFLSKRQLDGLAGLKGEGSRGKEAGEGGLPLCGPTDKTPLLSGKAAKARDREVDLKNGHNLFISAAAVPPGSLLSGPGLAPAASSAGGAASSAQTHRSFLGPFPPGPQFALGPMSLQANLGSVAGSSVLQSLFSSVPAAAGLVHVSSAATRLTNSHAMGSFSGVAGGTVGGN
Procedure: (§1) We next assessed selectivity of MS67 against 22 protein methyltransferases (table S2) and a broad panel of common drug targets including 45 kinases (table S3) and 44 G protein–coupled receptors (GPCR), ion channels, and transporters (table S4). […] We subsequently determined that MS67 had moderate binding affinity (Ki = 1.0 ± 0.8 μM) to Sigma 2 receptor (fig. S10).

[2] = target: T1, NSD3 (Homo sapiens, UniProt Q9BZ95); settings: Substrate:=Nucleosomes
T1 sequence (Q9BZ95 1-1437): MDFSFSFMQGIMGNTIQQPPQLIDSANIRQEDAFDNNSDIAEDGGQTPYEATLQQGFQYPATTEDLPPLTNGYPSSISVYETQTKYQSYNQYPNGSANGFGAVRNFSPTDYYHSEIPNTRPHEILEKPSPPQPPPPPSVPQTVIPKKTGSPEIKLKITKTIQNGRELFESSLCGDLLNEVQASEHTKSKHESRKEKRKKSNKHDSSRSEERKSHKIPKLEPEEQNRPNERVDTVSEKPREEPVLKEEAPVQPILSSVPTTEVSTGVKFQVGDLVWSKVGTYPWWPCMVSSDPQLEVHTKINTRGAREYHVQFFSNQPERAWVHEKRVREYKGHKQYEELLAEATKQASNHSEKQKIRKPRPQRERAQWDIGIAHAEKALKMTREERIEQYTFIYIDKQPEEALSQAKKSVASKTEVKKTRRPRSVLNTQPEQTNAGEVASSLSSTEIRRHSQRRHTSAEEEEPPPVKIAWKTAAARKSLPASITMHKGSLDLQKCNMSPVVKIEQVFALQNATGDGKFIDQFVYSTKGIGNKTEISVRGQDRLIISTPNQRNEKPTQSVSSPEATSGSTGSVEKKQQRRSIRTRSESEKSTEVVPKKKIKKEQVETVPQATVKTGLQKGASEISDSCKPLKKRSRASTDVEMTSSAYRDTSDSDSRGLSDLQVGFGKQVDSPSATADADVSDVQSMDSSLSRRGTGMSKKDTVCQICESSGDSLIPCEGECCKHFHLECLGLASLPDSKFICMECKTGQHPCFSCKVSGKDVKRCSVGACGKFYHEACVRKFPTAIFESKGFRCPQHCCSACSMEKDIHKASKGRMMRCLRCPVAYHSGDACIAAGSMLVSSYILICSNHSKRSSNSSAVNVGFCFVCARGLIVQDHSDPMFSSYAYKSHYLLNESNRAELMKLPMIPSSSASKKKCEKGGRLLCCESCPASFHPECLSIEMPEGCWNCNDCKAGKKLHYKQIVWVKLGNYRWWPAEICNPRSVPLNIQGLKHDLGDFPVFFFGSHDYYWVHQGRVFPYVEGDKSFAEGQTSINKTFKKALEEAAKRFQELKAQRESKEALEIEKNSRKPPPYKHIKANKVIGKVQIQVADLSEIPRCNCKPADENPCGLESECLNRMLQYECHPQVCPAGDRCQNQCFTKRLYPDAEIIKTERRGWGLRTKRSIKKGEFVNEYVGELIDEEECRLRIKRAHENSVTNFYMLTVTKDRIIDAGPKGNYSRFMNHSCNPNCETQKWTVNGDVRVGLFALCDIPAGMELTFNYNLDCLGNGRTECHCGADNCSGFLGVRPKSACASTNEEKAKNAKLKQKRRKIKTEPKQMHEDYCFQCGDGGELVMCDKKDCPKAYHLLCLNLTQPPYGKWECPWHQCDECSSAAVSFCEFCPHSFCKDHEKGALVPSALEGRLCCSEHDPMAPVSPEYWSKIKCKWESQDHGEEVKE
Procedure: as §1

[3] = target: T2, PRMT7 (Homo sapiens, UniProt Q9NVM4); settings: Substrate:=GST-GAR
T2 sequence (Q9NVM4 1-692): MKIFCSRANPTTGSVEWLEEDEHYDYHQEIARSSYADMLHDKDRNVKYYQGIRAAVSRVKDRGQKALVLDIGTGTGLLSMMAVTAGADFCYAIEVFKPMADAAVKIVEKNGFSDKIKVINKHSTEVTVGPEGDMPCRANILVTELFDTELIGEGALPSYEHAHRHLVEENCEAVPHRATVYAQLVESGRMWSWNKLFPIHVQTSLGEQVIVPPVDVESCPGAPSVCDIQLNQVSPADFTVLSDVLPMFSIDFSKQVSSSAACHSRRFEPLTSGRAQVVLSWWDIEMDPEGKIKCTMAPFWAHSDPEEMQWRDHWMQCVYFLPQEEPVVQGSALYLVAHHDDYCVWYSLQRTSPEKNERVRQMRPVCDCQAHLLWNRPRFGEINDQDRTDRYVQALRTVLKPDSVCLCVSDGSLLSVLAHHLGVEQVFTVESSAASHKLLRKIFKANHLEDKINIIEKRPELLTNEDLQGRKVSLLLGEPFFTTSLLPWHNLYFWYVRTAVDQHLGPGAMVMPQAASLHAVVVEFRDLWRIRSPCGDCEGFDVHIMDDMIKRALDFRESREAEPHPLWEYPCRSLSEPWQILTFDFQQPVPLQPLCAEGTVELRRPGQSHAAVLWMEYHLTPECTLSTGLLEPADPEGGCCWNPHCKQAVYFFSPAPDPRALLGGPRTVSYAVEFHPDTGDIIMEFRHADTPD
Procedure: as §1

[4] = read-out: Enzyme % Activity (relative to DMSO controls) / MS67 / 10 / Data 1:
[5] = read-out: Enzyme % Activity (relative to DMSO controls) / MS67 / 10 / Data 2:

SMILES: Cc1ncsc1-c1ccc([C@H](C)NC(=O)[C@@H]2C[C@@H](O)CN2C(=O)[C@@H](NC(=O)CNC(=O)c2ccc(F)c(-c3ccc(N4C[C@@H](C)N(C)[C@@H](C)C4)c(NC(=O)c4c[nH]c(=O)cc4C(F)(F)F)c3)c2)C(C)(C)C)cc1 [MS67]
- remaining activity at 10 µM [1, 4]: 95.8%
- remaining activity at 10 µM [1, 5]: 92.3%
- remaining activity at 10 µM [2, 4]: 136%
- remaining activity at 10 µM [2, 5]: 145%
- remaining activity at 10 µM [3, 4]: 100%
- remaining activity at 10 µM [3, 5]: 103%
